≈ marks a conversion by molar mass, not a printed value. Like-named read-outs stand apart in the source and are kept apart here.
Assays:
SW620 cells = experiment: Cell proliferation assay (SRB), SW620; type: cell-based; details: for IC50: Homo sapiens, SW-620, 48 h, read-out: CELL IC50 SW620
Her-2 = target: T1, Her-2 (Homo sapiens, UniProt P04626); experiment: Her-2 receptor phosphorylation in BT474 cells (immunoblot); type: cell-based
T1 construct: For Her-2 and EGFR phosphorylation assays, cells (BT474 and A431, respectively) were incubated with various concentrations of compound; endogenous in cells; host or cells: BT474
T1 sequence (P04626 23-1255): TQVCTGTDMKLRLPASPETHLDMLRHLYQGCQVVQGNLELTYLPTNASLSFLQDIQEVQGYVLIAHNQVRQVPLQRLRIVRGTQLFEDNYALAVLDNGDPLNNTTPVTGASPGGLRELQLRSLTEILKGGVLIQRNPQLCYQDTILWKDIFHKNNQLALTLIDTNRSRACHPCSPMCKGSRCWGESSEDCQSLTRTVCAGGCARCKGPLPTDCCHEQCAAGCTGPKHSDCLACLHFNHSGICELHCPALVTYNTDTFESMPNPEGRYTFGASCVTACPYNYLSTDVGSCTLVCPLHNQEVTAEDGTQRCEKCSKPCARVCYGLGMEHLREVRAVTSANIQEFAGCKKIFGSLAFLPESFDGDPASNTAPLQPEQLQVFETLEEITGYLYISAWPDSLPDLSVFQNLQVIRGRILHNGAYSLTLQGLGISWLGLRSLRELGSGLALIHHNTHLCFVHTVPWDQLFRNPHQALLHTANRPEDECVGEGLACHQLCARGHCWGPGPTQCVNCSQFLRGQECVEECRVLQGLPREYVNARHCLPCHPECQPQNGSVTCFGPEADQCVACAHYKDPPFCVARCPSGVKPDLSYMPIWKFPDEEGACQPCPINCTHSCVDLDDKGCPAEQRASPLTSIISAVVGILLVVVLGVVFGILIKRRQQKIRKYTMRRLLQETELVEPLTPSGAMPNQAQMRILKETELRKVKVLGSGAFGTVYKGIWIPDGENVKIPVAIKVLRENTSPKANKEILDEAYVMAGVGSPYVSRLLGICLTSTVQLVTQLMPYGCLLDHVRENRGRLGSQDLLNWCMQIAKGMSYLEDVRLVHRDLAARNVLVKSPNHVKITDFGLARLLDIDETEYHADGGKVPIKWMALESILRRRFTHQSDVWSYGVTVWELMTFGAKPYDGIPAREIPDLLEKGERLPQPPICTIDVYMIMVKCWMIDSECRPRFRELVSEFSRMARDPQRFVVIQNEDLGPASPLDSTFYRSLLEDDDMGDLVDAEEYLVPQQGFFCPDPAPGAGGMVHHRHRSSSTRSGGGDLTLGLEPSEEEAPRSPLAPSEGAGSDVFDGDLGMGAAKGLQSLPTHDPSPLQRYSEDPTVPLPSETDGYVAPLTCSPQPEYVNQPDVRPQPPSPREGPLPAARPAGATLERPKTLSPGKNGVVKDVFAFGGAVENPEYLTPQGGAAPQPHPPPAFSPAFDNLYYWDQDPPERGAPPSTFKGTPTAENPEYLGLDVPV

SK-Br-3 cells = experiment: Cell proliferation assay (SRB), SK-Br-3; type: cell-based; details: for IC50: Homo sapiens, SK-BR-3, 48 h, read-out: CELL IC50 SKBr3
MDA-MB-435 cells = experiment: Cell proliferation assay (SRB), MDA-MB-435; type: cell-based; details: for IC50: Homo sapiens, MDA-MB-435, 48 h, read-out: CELL IC50 MDA-MB-435
A431 cells = experiment: Cell proliferation assay (SRB), A431; type: cell-based; details: Homo sapiens, A-431, 48 h, read-out: CELL IC50 A431
[1] = target: mouse fibroblast cell line transfected with the HER-2 oncogene (3T3/neu) (UniProt P04626, cells depend on it, species not given); experiment: Cell proliferation assay (SRB), 3T3/neu; type: cell-based
BT474 cells = experiment: Cell proliferation assay (SRB), BT474; type: cell-based, human; details: for IC50: Homo sapiens, BT-474, 144 h, read-out: CELL IC50 BT474
[2] = target: T2, recombinant cytoplasmic domain of HER-2 (Homo sapiens, UniProt P04626); experiment: Cell-free autophosphorylation kinase assay (ELISA), HER-2; type: biochemical
T2 construct: In a cell-free autophosphorylation assay using the recombinant cytoplasmic domain of HER-2
T2 sequence (P04626 676-1255 limits assumed): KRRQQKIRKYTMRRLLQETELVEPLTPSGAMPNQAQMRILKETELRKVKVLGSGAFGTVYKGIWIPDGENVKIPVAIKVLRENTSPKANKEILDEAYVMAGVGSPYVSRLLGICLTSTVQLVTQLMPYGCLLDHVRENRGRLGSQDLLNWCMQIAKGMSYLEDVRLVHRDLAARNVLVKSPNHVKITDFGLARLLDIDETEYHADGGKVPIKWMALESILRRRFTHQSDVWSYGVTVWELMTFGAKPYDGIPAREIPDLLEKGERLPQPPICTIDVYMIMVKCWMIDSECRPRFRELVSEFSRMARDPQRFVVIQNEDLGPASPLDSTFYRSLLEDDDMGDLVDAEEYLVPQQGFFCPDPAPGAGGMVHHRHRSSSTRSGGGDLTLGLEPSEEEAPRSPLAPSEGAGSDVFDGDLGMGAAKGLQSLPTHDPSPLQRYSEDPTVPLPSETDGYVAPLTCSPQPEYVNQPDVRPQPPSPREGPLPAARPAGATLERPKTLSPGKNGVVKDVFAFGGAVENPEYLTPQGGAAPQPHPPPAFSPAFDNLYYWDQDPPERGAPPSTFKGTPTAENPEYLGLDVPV

3T3 cells = experiment: Cell proliferation assay (SRB), 3T3; type: cell-based, mouse; details: for IC50: Mus musculus
BT474 xenografts = experiment: BT474 tumor xenograft in nude mice; type: in vivo, mouse; details: day 21
[3] = tested on: xenografts of 3T3/neu cells; experiment: 3T3/neu tumor xenograft in nude mice; type: in vivo, mouse; details: day 21
[4] = tested on: HER-2 overexpressing human xenograft models; experiment: HER-2 overexpressing human xenograft models (overall); type: in vivo, mouse; details: mouse, in vivo
EGFR [5] = target: T3, EGFR (Homo sapiens, UniProt P00533); experiment: EGFR receptor phosphorylation in A431 cells (immunoblot); type: cell-based; design: They also repressed EGF-dependent phosphorylation of EGFR in A431 cells; endogenous in cells; host or cells: A431
Target sequence in this assay (P00533 25-1210): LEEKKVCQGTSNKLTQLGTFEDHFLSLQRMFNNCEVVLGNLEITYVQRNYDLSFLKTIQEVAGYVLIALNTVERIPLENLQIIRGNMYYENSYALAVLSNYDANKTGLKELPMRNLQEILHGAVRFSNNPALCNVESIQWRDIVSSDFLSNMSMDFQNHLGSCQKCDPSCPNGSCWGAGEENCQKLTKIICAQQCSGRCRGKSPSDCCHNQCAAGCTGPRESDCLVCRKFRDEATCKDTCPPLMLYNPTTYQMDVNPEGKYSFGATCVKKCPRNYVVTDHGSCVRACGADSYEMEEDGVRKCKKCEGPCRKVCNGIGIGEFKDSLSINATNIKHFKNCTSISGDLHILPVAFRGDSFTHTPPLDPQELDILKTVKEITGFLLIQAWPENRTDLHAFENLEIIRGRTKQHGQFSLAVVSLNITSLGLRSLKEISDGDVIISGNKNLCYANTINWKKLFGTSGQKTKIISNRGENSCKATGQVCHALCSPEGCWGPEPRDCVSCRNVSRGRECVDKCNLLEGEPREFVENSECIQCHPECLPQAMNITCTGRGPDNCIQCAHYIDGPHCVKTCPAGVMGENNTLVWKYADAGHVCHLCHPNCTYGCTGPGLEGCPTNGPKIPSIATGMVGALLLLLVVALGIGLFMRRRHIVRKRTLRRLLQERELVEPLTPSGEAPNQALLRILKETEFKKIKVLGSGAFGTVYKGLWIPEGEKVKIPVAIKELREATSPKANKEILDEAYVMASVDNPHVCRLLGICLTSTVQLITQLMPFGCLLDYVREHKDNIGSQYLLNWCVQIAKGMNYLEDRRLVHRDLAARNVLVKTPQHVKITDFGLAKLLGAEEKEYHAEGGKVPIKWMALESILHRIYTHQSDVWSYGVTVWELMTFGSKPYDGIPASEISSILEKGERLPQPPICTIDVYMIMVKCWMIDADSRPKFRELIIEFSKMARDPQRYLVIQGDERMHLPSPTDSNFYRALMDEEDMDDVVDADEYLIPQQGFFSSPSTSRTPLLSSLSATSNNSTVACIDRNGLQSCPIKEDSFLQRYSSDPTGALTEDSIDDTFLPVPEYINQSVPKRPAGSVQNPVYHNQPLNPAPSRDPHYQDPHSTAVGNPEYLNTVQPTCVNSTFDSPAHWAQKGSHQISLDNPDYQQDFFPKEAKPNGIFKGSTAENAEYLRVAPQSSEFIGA

EGFR [6] = target: T3, EGFR; experiment: Cell-free autophosphorylation kinase assay (ELISA), EGFR; type: biochemical; design: Purified recombinant C-terminal fragment of each enzyme is incubated with ATP; details: read-out: Enzyme IC50 EGFR (converted)
Target sequence in this assay (P00533 669-1210 limits assumed): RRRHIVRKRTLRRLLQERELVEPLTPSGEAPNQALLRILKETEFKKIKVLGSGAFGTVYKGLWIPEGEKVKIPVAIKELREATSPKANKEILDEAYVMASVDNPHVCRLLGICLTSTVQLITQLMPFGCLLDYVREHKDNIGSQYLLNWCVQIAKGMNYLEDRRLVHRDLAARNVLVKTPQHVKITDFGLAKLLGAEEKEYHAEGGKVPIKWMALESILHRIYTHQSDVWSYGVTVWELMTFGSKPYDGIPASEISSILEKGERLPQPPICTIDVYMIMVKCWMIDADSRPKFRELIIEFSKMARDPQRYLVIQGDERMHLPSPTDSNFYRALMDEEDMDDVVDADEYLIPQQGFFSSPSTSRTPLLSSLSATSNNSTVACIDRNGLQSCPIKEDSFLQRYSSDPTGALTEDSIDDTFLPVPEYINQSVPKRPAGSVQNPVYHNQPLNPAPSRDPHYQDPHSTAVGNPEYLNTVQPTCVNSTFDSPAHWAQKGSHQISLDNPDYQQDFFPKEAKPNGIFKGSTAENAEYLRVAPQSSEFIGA

[7] = Her-2 phosphorylation, 3 hours at 37° C., immunoblot, read-out: IC50 receptor phosphorylation BT474 (converted)
[8] = EGFR −, Her-2 +++, 2 days, SRB, read-out: CELL IC50 3T3/NEU (converted)
[9] = NIH3T3, 48 h, EGFR −, Her-2 −, 2 days, SRB, read-out: CELL IC50 3T3

SMILES | IC50 (SW620 cells; EGFR −, Her-2 −, 2 days, SRB) [µg/mL] | IC50 (Her-2; [7]) [µM] | IC50 (SK-Br-3 cells; EGFR −, Her-2 +++, 2 days, SRB) [µg/mL] | IC50 (MDA-MB-435 cells; EGFR −, Her-2 −, 2 days, SRB) [µg/mL] | IC50 (A431 cells) [µg/mL] | GI50 [1, 8] [µM] | inhibition of the HER-2 enzyme (in words) [2] | IC50 (A431 cells; EGFR +++, Her-2 +, 2 days, SRB) [µg/mL] | IC50 (BT474 cells; EGFR +, Her-2 +++, 6 days, SRB) [µg/mL] | IC50 (3T3 cells; [9]) [µg/mL] | also measured
COc1cc2ncc(C#N)c(Nc3ccc(Sc4nccs4)c(Cl)c3)c2cc1NC(=O)/C=C/CN(C)C [Example 40, (2E)-N-(4-{[3-chloro-4-(1,3-thiazol-2-ylsulfanyl)phenyl]amino}-3-cyano-7-methoxy-6-quinolinyl)-4-(dimethylamino)-2-butenamide] | 1.13 (≈ 2.05 µM) | 18.1 to 90.7 | 0.0007 (≈ 0.00127 µM) | 0.33 (≈ 0.599 µM) | 0.017 (≈ 0.0308 µM) | 0.00363 |  |  |  |  | 
CCOc1cc2ncc(C#N)c(Nc3ccc(F)c(Cl)c3)c2cc1NC(=O)C=CCN(C)C [Example 20, 4-Dimethyl-but-2-enoic acid [4-(3-chloro-4-fluoro-phenylamino)-3-cyano-7-ethoxy-quinolin-6-yl]-amide] |  |  |  |  |  |  | is not |  |  |  | CELL IC50 SW620 (SW620 cells; EGFR −, Her-2 −, 2 days, SRB): 0.32 µg/mL; CELL IC50 BT474 (BT474 cells; EGFR +, Her-2 +++, 6 days, SRB): 0.020 µg/mL; IC50 receptor phosphorylation BT474 (Her-2; Her-2 phosphorylation, 3 hours at 37° C., immunoblot): 0.080 µg/mL (≈ 0.171 µM); CELL IC50 SKBr3 (SK-Br-3 cells; EGFR −, Her-2 +++, 2 days, SRB): 0.0071 µg/mL; CELL IC50 MDA-MB-435 (MDA-MB-435 cells; EGFR −, Her-2 −, 2 days, SRB): 0.34 µg/mL; Enzyme IC50 HER-2 ([2]; autophosphorylation, ELISA): 0.58 µg/mL; CELL IC50 3T3 (3T3 cells; EGFR −, Her-2 −, 2 days, SRB): 0.26 µg/mL
COc1cc2ncc(C#N)c(Nc3ccc(Sc4nc(-c5ccccc5)cs4)c(Cl)c3)c2cc1NC(=O)/C=C/CN(C)C [Example 58, (E)-N-(4-{3-chloro-4-[(4-phenyl-1,3-thiazol-2-yl)sulfanyl]anilino}-3-cyano-7-methoxy-6-quinolinyl)-4-(dimethylamino)-2-butenamide] | 0.57 (≈ 0.909 µM) | 79.7 to 797 | 0.005 (≈ 0.00797 µM) | 0.23 (≈ 0.367 µM) |  | 0.0446 |  | 0.162 (≈ 0.258 µM) |  |  | 
CCOc1cc2ncc(C#N)c(Nc3ccc(OCc4ccccn4)c(Cl)c3)c2cc1NC(=O)/C=C/CN(C)C [Example 2, (E)-N-{4-[3-chloro-4-(2-pyridinylmethoxy)anilino]-3-cyano-7-ethoxy-6-quinolinyl}-4-(dimethylamino)-2-butenamide] |  |  |  |  | 0.045 (≈ 0.0808 µM) |  | potent inhibitors |  |  |  | IC50 (SW620 cells): 0.44 µg/mL (≈ 0.79 µM); IC50 (BT474 cells): 0.0013 µg/mL (≈ 0.00233 µM); IC50 (SK-Br-3 cells): 0.001 µg/mL (≈ 0.0018 µM); IC50 (MDA-MB-435 cells): 0.44 µg/mL (≈ 0.79 µM); maximum tumor growth inhibition (BT474 xenografts; 10 mg/kg/day PO): 76%; maximum tumor growth inhibition (BT474 xenografts; 40 mg/kg/day PO): 95%; IC50 (3T3 cells; NIH3T3, 48 h, read-out: CELL IC50 3T3): 0.39 µg/mL; IC50 (3T3 cells; NIH3T3, read-out: IC50 isogenic untransfected cells (3T3)): 0.683 to 0.906 µM; tumor growth inhibition ([3]; 20 mg/kg/day PO): 53%; tumor growth inhibition ([3]; 40 mg/kg/day PO): 95%; tumor growth inhibition ([3]; 80 mg/kg/day PO): 98%; MED in the HER-2 overexpressing human xenograft models [4]: ~10 mg/kg/day; GI50 ([1]; read-out: CELL IC50 3T3/NEU, mouse fibroblast cell line transfected with the her-2 oncogene (3t3/neu)): 0.00323 µM
CCOc1cc2ncc(C#N)c(Nc3ccc(OCc4cccs4)c(Cl)c3)c2cc1NC(=O)/C=C/CN(C)C [Example 76, (2E)-N-{4-[3-chloro-4-(2-thienylmethoxy)anilino]-3-cyano-7-ethoxy-6-quinolinyl}-4-(dimethylamino)-2-butenamide] | 0.25 (≈ 0.445 µM) | 0.00267 | 0.004 (≈ 0.00712 µM) | 0.77 (≈ 1.37 µM) |  | 0.00694 |  |  | 0.003 (≈ 0.00534 µM) | 0.41 | 
CCOc1cc2ncc(C#N)c(Nc3ccc(OCc4ccccc4)c(Cl)c3)c2cc1NC(=O)/C=C/CN(C)C [Example 1, (E)-N-{4-[4-(benzyloxy)-3-chloroanilino]-3-cyano-7-ethoxy-6-quinolinyl}-4-(dimethylamino)-2-butenamide] | 0.24 (≈ 0.432 µM) | 0.0135 | 0.0015 (≈ 0.0027 µM) | 0.47 (≈ 0.845 µM) |  | 0.00522 | potent inhibitors | 0.062 (≈ 0.111 µM) | 0.0014 (≈ 0.00252 µM) | 0.38 | IC50 (Her-2; ligand-independent receptor phosphorylation decreased by 50% (IC50) in BT474 cells, span over the three compounds): 0.005 to 0.023 µM; IC50 receptor phosphorylation A431 (EGFR [5]; EGFR phosphorylation, 3 hours at 37° C., immunoblot): 0.0031 µg/mL (≈ 0.00557 µM); IC50 (EGFR [5]; span over the three compounds, read-out: EGF-dependent phosphorylation of EGFR in A431 cells IC50): 0.003 to 0.007 µM; IC50 ([2]; HER-2 enzyme activity reduced by 50% (IC50), span over the three inhibitors): 0.033 to 0.065 µM; IC50 ([2]; autophosphorylation, ELISA, read-out: Enzyme IC50 HER-2 (converted)): 0.0647 µM; IC50 (EGFR [6]): 0.0504 µM; IC50 (3T3 cells; NIH3T3, span over the three compounds, read-out: IC50 isogenic untransfected cells (3T3)): 0.683 to 0.906 µM
